# Experimental data taken from PubChem BioAssay (NCI).
# Values joined by “and” are separate entries in the source; they are usually repeats but may differ in a detail not shown here. Equal values may be shown once.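 The compound was tested at five concentrations on cells cultured in 96-well plates, with a 48-hour exposure period. GI50: concentration for 50% inhibition of growth. The concentration for full growth arrest is given as TGI.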
# Experiments:
# Test in all cases: NCI tumour cell line growth inhibition, 48 h
# [1] = tested on: BT-549 breast
# [2] = tested on: IGROV1 ovarian
# [3] = tested on: SF-539 CNS
# [4] = tested on: NCI-H226 lung
# [5] = tested on: MCF7 breast
# [6] = tested on: SNB-19 CNS
# [7] = tested on: SK-MEL-5 melanoma
# [8] = tested on: A549 NSCLC
# [9] = tested on: PC-3 prostate
# [10] = tested on: T-47D breast
SMILES,GI50 [1],TGI [1],GI50 [2],TGI [2],GI50 [3],TGI [3],GI50 [4],TGI [4],GI50 [5],TGI [5],GI50 [6],TGI [6],GI50 [7],TGI [7],GI50 [8],TGI [8],GI50 [9],TGI [9],GI50 [10],TGI [10]
CCS(=O)(=O)Nc1cccc(Nc2c3cccc(C)c3nc3c(C)cccc23)c1OC,2.54 µM,25.1 µM,1.8 µM,> 70.2 µM,0.708 µM,6.23 µM,0.627 µM,4.76 µM,0.168 µM,49.5 µM,0.572 µM,> 88.3 µM,1.1 µM,8.21 µM,0.202 µM,4.02 µM,1.67 µM,19.2 µM,0.58 µM,> 30.4 µM
O=C(NCc1ccco1)c1ccc(NC2=C(Cl)C(=O)N(Cc3ccccc3)C2=O)cc1,17.9 µM,36.5 µM,2.12 µM,35.2 µM,22.2 µM,41 µM,17.2 µM,60.8 µM,3.91 µM,23.8 µM,21.3 µM,45.6 µM,27.4 µM,73.4 µM,37.2 µM,> 100 µM,17.5 µM,32.5 µM,41 µM,> 100 µM
CC[C@@]1(O)C(=O)OCc2c1cc1n(c2=O)Cc2c-1nc1cc3c(cc1c2C)OCO3,0.0205 µM,,0.0351 µM,,< 0.0001 µM,0.000149 µM,< 0.0001 µM,0.0195 µM,< 0.0001 µM,0.299 µM,0.000473 µM,0.0131 µM,< 0.0001 µM,0.0559 µM,< 0.0001 µM,0.0737 µM,0.0254 µM,> 100 µM,< 0.0001 µM,
O=C(NCc1ccncc1)C12CC3CC(C1)CC(c1ccc(Cl)cc1)(C3)C2,10.6 µM,26.4 µM,13.3 µM,29.3 µM,14.1 µM,28.1 µM,12 µM,31.1 µM,10.2 µM,27.8 µM,13.5 µM,27.8 µM,5.7 µM,18.3 µM,15 µM,30.8 µM,8.86 µM,23.1 µM,6.88 µM,27.5 µM
CC/C(=C(/c1ccc(O)cc1)c1ccc(OCCN2CCCCC2)cc1)c1ccc(OC)cc1,1.6 µM,3.19 µM,2.5 µM,8.95 µM,1.66 µM,3.19 µM,16.8 µM,37.9 µM,0.0707 µM,2.08 µM,1.97 µM,4.62 µM,1.79 µM,3.21 µM,4.11 µM,15.4 µM,1.41 µM,3.34 µM,1.01 µM,3 µM
N#CC1=C(N)NC(=S)NC12Nc1ccccc1N2,33.1 µM,91.2 µM,26.9 µM,> 100 µM,42.4 µM,> 100 µM,20.6 µM,88.2 µM,22.7 µM,> 100 µM,90.1 µM,> 100 µM,18.1 µM,61 µM,37.6 µM,> 100 µM,28.5 µM,> 100 µM,69.7 µM,> 100 µM
CSc1ncnc2c1ncn2C1OC(CO)C(O)OC1O (configuration not stated),,48.5 µM,,18.9 µM,,16.9 µM,,,,> 100 µM,,51.5 µM,,17.6 µM,,> 100 µM,,33.9 µM,,17.7 µM
CCOC(=O)C(C)(C)C(O)C(C)C (configuration not stated),,> 100 µM,,> 100 µM,,> 100 µM,,,,> 100 µM,,> 100 µM,,> 100 µM,,> 100 µM,,> 100 µM,,> 100 µM
CCc1cc2c(cc1N1CCC(N3CCOCC3)CC1)C(C)(C)c1[nH]c3cc(C#N)ccc3c1C2=O,1.49 µM and 1.6 µM,3.69 µM and 3.87 µM,2.48 µM and 1.45 µM and 0.772 µM,16.7 µM and 5.16 µM and 4 µM,1.8 µM and 1.58 µM and 1.62 µM,3.92 µM and 3.43 µM and 3.86 µM,1.75 µM and 1.63 µM and 1.61 µM,4.32 µM and 3.97 µM and 5.19 µM,1.66 µM and 1.64 µM and 1.34 µM,> 23.8 µM and 15.6 µM and > 10 µM,1.66 µM and 1.79 µM and 3.17 µM,4.02 µM and 4.44 µM and > 10 µM,1.12 µM and 1.5 µM and 3 µM,19.2 µM and 14.2 µM and > 10 µM,1.36 µM and 1.51 µM and 1.31 µM,3.05 µM and 3.88 µM and 3.67 µM,0.921 µM and 0.653 µM and 0.738 µM,> 36.1 µM and 14.6 µM and > 10 µM,2.2 µM and 1.94 µM and 2.18 µM,10.9 µM and 5.32 µM and > 10 µM
COc1ccc(-c2c(-c3cc(OC)c(OC)c(OC)c3)noc2N)cc1,0.0215 µM,0.0673 µM,0.0202 µM,40.1 µM,,,0.0244 µM,> 100 µM,< 0.01 µM,19.1 µM,0.0342 µM,> 100 µM,< 0.01 µM,0.257 µM,< 0.0124 µM,> 100 µM,< 0.0119 µM,> 100 µM,9.91 µM,> 100 µM
O=C(CCC(C(=O)c1ccccc1)c1ccccc1)c1ccccc1 (configuration not stated),7.92 µM,86.7 µM,32 µM,> 100 µM,52 µM,> 100 µM,,,15.1 µM,> 100 µM,73.8 µM,> 100 µM,9.29 µM,34.3 µM,7.29 µM,> 100 µM,7.94 µM,> 100 µM,7.69 µM,> 100 µM
C/C(=C\COc1c2c(cc3c1CCO3)OC1(C=C2)OC(CC/C(C)=C/COc2c3ccoc3cc3oc(=O)ccc23)C(C)(C)O1)CCC(O)C(C)(C)O (configuration not stated),16.7 µM,> 100 µM,,,63.5 µM,> 100 µM,58.7 µM,> 100 µM,5.62 µM,> 100 µM,55.2 µM,> 100 µM,8.85 µM,> 100 µM,13.3 µM,> 100 µM,6.56 µM,> 100 µM,3.13 µM,> 100 µM
Cc1cn2c(/C=N/N=C(N)N)c(-c3cccnc3)nc2s1,12.8 µM,30.9 µM,15.6 µM,49.8 µM,,,10.1 µM,29.4 µM,20.8 µM,> 100 µM,12.7 µM,28.9 µM,2.68 µM,13.7 µM,16.3 µM,56.1 µM,6.95 µM,24.7 µM,1.94 µM,12.1 µM
